One series relates to primary CD4+ T cells. The series is described as follows: Induction of CD69 expression in primary CD4+ T cells. Particulars: 24h. It is filed as cell-based, human. How it is done:
Primary human cells from HIV seronegative individuals were cultured in “RF10 medium” consisting of RPMI 1640 medium supplemented with 10% fetal bovine serum (FBS, Omega Scientific), 100 U/mL of penicillin, and 100 μg/mL of streptomycin (Invitrogen). PBMCs were isolated using Ficoll-Paque Plus separation (GE Healthcare). Primary CD4+ T cells were separated from PBMCs by negative immunomagnetic selection using the CD4+ T cell Isolation Kit (Miltenyi Biotec) according to the manufacturer’s instructions. Cells were then exposed to compound for 24 hours before staining and flow cytometric analysis of CD69 levels. Compound incubations were performed by seeding 10^5 cells/well in 100 μL of RF10 media containing the appropriate concentration of compound in wells of a v-bottomed 96-well plate. Bryostatin 1 (Tocris bioscience) and Prostratin (LC Laboratories) were obtained commercially, and bryologs or prostratin analogs were synthesized as previously described.
For human PBMC CD69 induction experiments, cells were stained with CD69-ECD (Beckman Coulter 6607110). During staining, cells were incubated at 4 °C for 20 minutes, washed with 2% FBS in PBS, and then resuspended in 2% paraformaldehyde. Stained samples were stored at 4 °C.
Flow cytometry samples were analyzed using a Cytomics FC 500 (Beckman Coulter) or a LSR Fortessa (BD Biosciences) flow cytometer. Data were analyzed using FlowJo (v7) software.

In a further series the test system is murine splenocytes. The series is described as follows: In vivo bioactivity (CD69/CD25 in splenocytes) in C57/bl6 mice. Particulars: intraperitoneal injection, 24h post-injection, maximum over ascending doses. How it is done:
C57/bl6 mice were obtained from the UCLA Department of Radiation Oncology. Compounds were suspended in DMSO and then further diluted in RF10 media to produce a final volume of 500 μL (containing a maximum 4% DMSO). These 500 μL volumes were administered to mice by intraperitoneal injection. Mice were monitored for acute toxicities and then sacrificed at the indicated times. Spleens were removed and disaggregated using a steel mesh, and then filtered through a 40 μm filter to produce a single-cell suspension. The resultant splenocytes were then stained for flow cytometry to analyze surface expression of relevant markers.
During standard flow cytometry staining, samples of 10^5 cells were suspended in 50 μL of a 1:1 dilution of phosphate buffered saline (PBS):Human AB serum (Sigma). Staining of C57/bl6 mouse splenocytes was performed by adding the following anti-mouse fluorescent conjugated antibodies: CD3-Fluorescein isothiocyanate (FITC, eBioscience 11-0032-82); CD69-Phycoerythrin (PE, eBioscience 12-0691-83); and CD4-Allophycocyanin (APC, eBioscience 17-0041-83). In some experiments CD4-APC was replaced with CD25-APC (eBioscience 17-0251-82) and CD4-Phycoerythrin Cyanin 7 (PC7, eBioscience 25-0041-82). For humanized mouse studies, PBMC and splenocytes from BLT mice were stained with anti-mouse CD45-Alexa 700 (Biolegend 103128) and the following anti-human antibodies: CD45-e450 (eBioscience 48-0459-42); CD3-APC-780 (eBioscience; 47-0038-42); CD4-V500 (BD biosciences; 560768); CD8-Peridinin chlorophyll protein (PerCP)-710 (eBioscience 46-0087-42); CD25-PE (Beckman IM0479U); CD69-APC (Biolegend 310910); CD14-PE-Cy7 (Biolegend 325618). Cells were separately stained for anti-human CD45 e450- (eBioscience 48-0459-42) and anti-HA-Biotin PE (Roche 12158167001) followed by a secondary Streptavidin, R-Phycoerythrin Conjugate (Invitrogen s866) stain. This two-step stain was performed by incubating 1-2x10^6 cells at 4°C for 20–30 min, washing with 2% FBS in PBS, then adding the secondary stain, incubating again at 4°C for 20–30 min, and washing with 2% FBS in PBS before fixation with 2% paraformaldehyde. In some experiments, cell death was also evaluated by GHOST Red 780 (Tonbo Biosciences 13–0865) or Zombie Yellow (Biolegend 423104) stains. For this procedure, 10^6 cells were suspended in 100 μL PBS, and then the Zombie yellow and GHOST Red 780 dyes added. Cells were incubated for 20 min at room temperature in the dark and then washed twice with 2% FBS in PBS. Cells were then fixed with 2% paraformaldehyde and incubated for 20 min in the dark. In some experiments cells were then washed with 2% FBS in PBS, resuspended in 1:1 PBS:Human AB serum and then stained for human CD45 and HA, CD3-PE-Cy5 (Biolegend 300310), CD4-ECD (Beckman 6604727), CD8 Per-CO710 (eBioscience 46-0087-42) and CD3-APC (Cell signaling 9602S) as described above.

The conditions of series [1]: phase I, ART-treated patients; cited from earlier work.

Regarding `CCC/C=C/C=C/C(=O)O[C@H]1/C(=C/C(=O)OC)C[C@H]2C[C@H]([C@@H](C)O)OC(=O)C[C@H](O)C[C@@H]3C[C@H](OC(C)=O)C(C)(C)[C@](O)(C[C@@H]4C/C(=C/C(=O)OC)C[C@H](/C=C/C(C)(C)[C@]1(O)O2)O4)O3` [bryostatin 1], the CD69 expression entry with primary CD4+ T cells was “can each induce expression”. The “CD4+ splenocytes expressing CD69” value in the series with murine splenocytes is recorded as “approximately 60%”. In addition, in series [1], the safety in patients result was “safe at low doses”.
`CC(=O)O[C@@]12C[C@@H](C)[C@@]3(O)[C@@H](C=C(CO)C[C@]4(O)C(=O)C(C)=C[C@@H]34)[C@@H]1C2(C)C` [Prostratin]: in the series on primary CD4+ T cells, the CD69 expression entry is reported as “can each induce expression”.

(Values after PMC5608406, “In vivo activation of latent HIV with a synthetic bryostatin analog effects both latent cell "kick" and "kill" in strategy for virus eradication” (PLoS Pathogens, 2017).)
